Laboratory results published in patent publication US20060040861A1, “Method of treating, preventing, and diagnosing prostate cancer” (priority 2004, published 2006).

Tests used:
LNCaP-FGC cells [1] = test: [3H] thymidine incorporation assay; assay type: cell-based, human
Description: DU145 (1.5×10^5/well), PC-3 (1.0×10^5/well) and LNCaP-FGC (2.0×10^5/well) cells were seeded into 24-well plates 24 hours before serum-starvation. Cells were deprived of serum for 48 hours, followed by incubation with leptin at indicated concentrations or 100 ng/ml IL-6 for 20 hours. In some experiments, cells were pretreated with SP600125 prior to cytokine stimulation as described below. Cells in each well were pulsed with 1 μCi of [^3H] thymidine (Amersham Pharmacia Biotech Inc., Piscataway, N.J., USA) during the final 5 hours, washed once with PBS, fixed with cold 5% trichloroacetic acid, solubilized with 0.25 M NaOH, and counted in scintillant. Each experiment was performed in quadruplicate, and the values are reported as mean±SD.

LNCaP-FGC cells [2] = test: Cell proliferation with leptin and DHT; assay type: cell-based, human; details: only in the presence of DHT
JNK = test: In vitro JNK assay on lysates of treated C2C12 myoblasts; assay type: cell-based, murine; details: 1.0 μg/ml
Description: (§1) Seventy-percent confluent cells were deprived of serum for 24 hours, followed by treatment with 1 μg/ml f- or g-adiponectin or 10 μg/ml anisomycin for indicated periods. After being rinsed with cold phosphate-buffered saline, cells were harvested using a scraper and collected by centrifugation at 700×g for 10 minutes at 4° C. The cell pellets were then homogenized in cell lysis buffer (20 mM HEPES, pH 7.9, 300 mM NaCl, 1 mM Na3VO4, 1 μg/ml leupeptin, 5 μg/ml aprotinin, 1 μg/ml pepstatin, and 1 mM phenylmethylsulfonyl fluoride) and rocked gently for 30 minutes at 4° C. The homogenates were centrifuged at 15,000×g for 5 minutes at 4° C., and the supernatants were saved as cell lysates and stored at −80° C. until use.
Using the stress-activated protein kinase/JNK assay kit, JNK activity was assessed with a fusion protein of the c-Jun NH2 terminus (amino acids 1 to 89) and glutathione S-transferase as a substrate according to the manufacture's instructions with some modifications as reported before (M. Onuma, et al., supra, 2003). […] The substrate fusion protein was separated by SDS-polyacrylamide gel electrophoresis, and its phosphorylation by JNK was determined by Western blot analysis using anti-phospho-c-Jun (Ser-63) polyclonal antibody. To normalize sample variations, JNK protein levels were also determined by Western blot analysis using anti-JNK antibody.

c-Jun = test: Western blot analysis of c-Jun phosphorylation in C2C12 myoblasts; assay type: cell-based, murine; details: 1.0 μg/ml
Description: as §1
Cell lysates (100 μg of protein) were electrophoresed on 10% SDS-polyacrylamide gels and transferred to polyvinylidene difluoride membranes. After being washed and blocked, the membranes were hybridized with anti-phospho-c-Jun (Ser-63 or Ser-73) polyclonal antibody that specifically detects phosphorylated c-Jun molecules. The membranes were then stripped and re-hybridized with anti-c-Jun antibody that recognizes both phosphorylated and unphosphorylated c-Jun molecules to normalize sample variations.

leptin: Recombinant human leptin purchased from R&D Systems; major adipose cytokine
cell proliferation on co-treatment with leptin and IGF-I (LNCaP-FGC cells [1]; 12.5 μg/ml leptin with 100 ng/ml IGF-I, 20 hours): did not influence
effect on the IL-6-induced inhibition of cell proliferation (LNCaP-FGC cells [1]; 12.5 μg/ml leptin with 100 ng/ml IL-6, 20 hours): did not influence
[3H] thymidine incorporation (cell proliferation), cytokine alone (LNCaP-FGC cells [1]; serum-deprived, leptin up to 12.5 μg/ml, IL-6 100 ng/ml or IGF-I 100 ng/ml, 20 hours): did not influence
cell proliferation, leptin together with androgen (DHT) (LNCaP-FGC cells [2]): synergistically stimulate cell proliferation

B1: f-adiponectin: Recombinant human full-length (non-proteolytic) adiponectin, about 30-kDa polypeptide; lot mainly HMW form (protein, UniProt Q15848 1-244, looked up)
chain: MLLLGAVLLLLALPGHDQETTTQGPGVLLPLPKGACTGWMAGIPGHPGHNGAPGRDGRDGTPGEKGEKGDPGLIGPKGDIGETGVPGAEGPRGFPGIQGRKGEPGEGAYVYRSAFSVGLETYVTIPNMPIRFTKIFYNQQNHYDGSTGKFHCNIPGLYYFAYHITVYMKDVKVSLFKKDKAMLFTYDQYQENNVDQASGSVLLHLEVGDQVWLQVYGEGERNGLYADNDNDSTFTGFLLYHDTN
modifications: full-length
notes: Recombinant human full-length (non-proteolytic) adiponectin, about 30-kDa polypeptide; lot mainly HMW form
time of peak JNK activation after addition (JNK): 10 min
JNK activation (JNK; up to 60 minutes): further stimulated JNK activation
c-Jun phosphorylation at Ser-63 (c-Jun): augmented c-Jun phosphorylation at Ser-63
c-Jun phosphorylation at Ser-73 (c-Jun): stimulated Ser-73 phosphorylation
